The values that follow come from ChEMBL document CHEMBL1128862, “Tricyclic cephems as inhibitors of human leukocyte elastase. thieno[3,4-c]cepham sulfones and pyrrolo[3,4-c]cepham sulfones” (Bioorg Med Chem Lett, 1995).

The nature of data set [1]: Hydrolytic stability at 37 degrees Celsius in 50 mM phosphate buffer (20 % v/v MeCN as solubilising vehicle) at pH 7.4. It counts as physicochemical.
In data set [2] the target is T1, Neutrophil elastase (Homo sapiens) (UniProt P08246).
T1 sequence (whole entry): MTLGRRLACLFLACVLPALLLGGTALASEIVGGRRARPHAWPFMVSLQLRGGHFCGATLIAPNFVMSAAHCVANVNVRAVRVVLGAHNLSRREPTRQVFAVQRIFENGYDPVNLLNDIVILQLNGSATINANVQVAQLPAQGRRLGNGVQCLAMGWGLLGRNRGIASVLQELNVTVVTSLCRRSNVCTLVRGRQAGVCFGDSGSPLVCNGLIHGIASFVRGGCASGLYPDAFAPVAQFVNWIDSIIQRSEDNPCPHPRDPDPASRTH
Briefly: Inhibitory activity against human leukocyte elastase (HLE) expressed as second order inhibition rate constant.

Data set [3] can be described thus: Hydrolytic stability at 37 degrees Centigrade in 50 mM phosphate buffer (2 % v/v MeCN as solubilising vehicle) at pH 7.4. It counts as physicochemical.

Each structure is given as a SMILES string.

For orientation: half-life means how long it takes for the measured level to halve. Higher therefore signals slow decline. With `CO[C@H]1C(=O)N2c3c(cn(-c4ccc([N+](=O)[O-])cc4)c3-c3ccccc3)CS(=O)(=O)[C@H]12`, the half-life in data set [1] was above 125 days. Moreover, in data set [2], the k on worked out at 11000 M⁻¹ s⁻¹.
In the case of `CO[C@H]1C(=O)N2c3c(csc3C(C)(C)C)CS(=O)(=O)[C@H]12`, the half-life in data set [3] is 9.17 days. In addition, the k on in data set [2] was determined as 80 M⁻¹ s⁻¹.
In the case of `CO[C@H]1C(=O)N2c3c(c[nH]c3C(C)(C)C)CS(=O)(=O)[C@H]12`, in data set [3], the half-life is 21.2 days. The same molecule registered a k on in data set [2] of 1300 M⁻¹ s⁻¹.
`CO[C@H]1C(=O)N2c3c(cn(C(=O)C(C)(C)C)c3-c3ccccc3)CS(=O)(=O)[C@H]12` gave a half-life in data set [3] of 33.3 days. In data set [2], this molecule returned a k on of 2100 M⁻¹ s⁻¹.
For `CO[C@H]1C(=O)N2c3c(c[nH]c3-c3ccccc3)CS(=O)(=O)[C@H]12`, the half-life in data set [3] was 23.8 days. Moreover, in data set [2], the k on was found to be 2500 M⁻¹ s⁻¹.
Molecule `CO[C@H]1C(=O)N2c3c(csc3-c3ccccc3)CS(=O)(=O)[C@H]12` had a half-life in data set [3] of 1.42 days. The molecule also gave a k on in data set [2] of 270 M⁻¹ s⁻¹.
